The test system of assay [1] is phenylephrine vasopressor effects. As to the kind of experiment: Inhibition of phenylephrine vasopressor effects in anesthetized rabbits. Conditions: rabbit, i.v., versus control curve. The format is in vivo. The method, then:
Animal and Homodynamic Measurements:
The experiments were performed with male rabbits weighing 3 kg, from the CECAL (Centro de Criação de Animais de Laboratório) at Fundação Oswaldo Cruz. The animals were anesthetized with sodium pentobarbital (40 mg/kg) in the ear marginal vein, and anesthesia maintenance was obtained with supplemental intravenous (i.v.) doses of 5 mg/kg as necessary. The […] were tracheomized, inserted with a polyethylene canule, and immobilized with pancuronium bromide (1 mg/kg, i.v.), with supplemental doses of 0.2 mg/kg for each hour of experiment and artificially ventilated with a mechanical fan (Rodent ventilator 7025, Ugo Basile) with a volume of 10 ml/kg and frequency from 40 to 50 incursions/min. The right femoral vein was catheterized for drug administration.
The arterial pressure was monitored through abdominal aorta catheter via the right femoral artery and connected to a quartz transductor Hewlett Packard (1290 A), which was connected to an arterial pressure processor and recorder Hewlett Packard (system 7754 with amplifier 8805 B).
The systolic (SAP) and diastolic (DAP) arterial pressures were obtained directly from the records and the average arterial pressure (AAP) was calculated by DAP's Sum with a third of the differential pressure [[…]]. The cardiac frequency was determined by counting the pressure waves, visualized with the speed increase of the recorder paper.
The cardiac debit (DC) was monitored using an electromagnetic probe, connected to a Skalar flowmeter model MDL 1401. After left thoraxatomy, between the second and third ribs, was made an incision in the pericardium and the heart was exposed to enable the visualization and dissection of the ascending aorta for installation of the electromagnetic probe. The systemic vascular resistance (SVR) was calculated as a quotient of the average arterial pressure by the cardiac debit, multiplied by a conversion factor 80 (SVR=AAP/DC×80) and expressed in dyn/seg/cm-5.
At the conclusion of the anesthetic-surgical procedures, a 15-minute period was allowed for stabilization of the homodynamic parameters. Before any pharmacological manipulation the average arterial pressure, cardiac frequency and cardiac debit measurements were obtained. These values were considered basal homodynamic values.
Dose-Response Curve of the Phenylephrine Vasopressor Effect:
After surgical procedures and stabilization of the homodynamic parameters, a dose-response curve of the phenylephrine pressure effects was performed ([…], i.v.), that were named control curves. […]
The results were expressed as average±standard deviation (E.P.M.) The administration effects of LASSBio 772 with regard to the basal values were analyzed through variance analysis (ANOVA) for repeated measurements. […]

Assay [2] concerns muscarinic cholinergic receptors. As to the kind of experiment: Cobaio (guinea pig) trachea contraction induced by carbacol. It is filed as cell-based. Conditions: 30 microM compound, carbacol 10 microM. The source says:
Selectivity Assay for Protein G-Coupled, Beta-Adrenergic, Muscarinic Cholinergic and Histaminergic Bioreceptors
Determination of the Inhibitory Potency (IC50) of LASSBio 772 on Vasoconstriction of the Cobaio (Guinea Pig) Trachea
Cobaios albinos from both sexes, weighing between 400 and 600 g were used in this experiment. The animals were sacrificed by cervical displacement and posterior bleed. Then, their tracheas were removed, kept in 5 microM indometacin added Krebs-Henseleit physiologic solution and oxygenated with carbogenic mixture (95% O2 and 5% CO2), proceeding the removal of the connective and adhered adipose tissue. From these tracheas were obtained segments with 4-6 rings, that are sectioned in the opposite side of the smooth musculature, originating strips used in the contractions assay (ARAKIDA et al., J. Pharmacol. Exper. Therap., 287: 633-639, 1998). […]
After the period, the organ is treated with agonists that will induce contractions. […] The tissue viability was evaluated by contraction induction with histamine 100 microM or carbacol 10 microM. […]
The compound LASSBio 772 was evaluated in the concentration of 30 microM as for its relaxation capability in comparison to contractions induced by carbacol, muscarinic cholinergic agonist, at a 10 microM concentration.

The target in the next assay is T1, alpha 1B subtype (Rattus norvegicus, UniProt P15823).
T1 construct: from tissue; host or cells: rat liver homogenate/membranes
T1 sequence (P15823 1-515): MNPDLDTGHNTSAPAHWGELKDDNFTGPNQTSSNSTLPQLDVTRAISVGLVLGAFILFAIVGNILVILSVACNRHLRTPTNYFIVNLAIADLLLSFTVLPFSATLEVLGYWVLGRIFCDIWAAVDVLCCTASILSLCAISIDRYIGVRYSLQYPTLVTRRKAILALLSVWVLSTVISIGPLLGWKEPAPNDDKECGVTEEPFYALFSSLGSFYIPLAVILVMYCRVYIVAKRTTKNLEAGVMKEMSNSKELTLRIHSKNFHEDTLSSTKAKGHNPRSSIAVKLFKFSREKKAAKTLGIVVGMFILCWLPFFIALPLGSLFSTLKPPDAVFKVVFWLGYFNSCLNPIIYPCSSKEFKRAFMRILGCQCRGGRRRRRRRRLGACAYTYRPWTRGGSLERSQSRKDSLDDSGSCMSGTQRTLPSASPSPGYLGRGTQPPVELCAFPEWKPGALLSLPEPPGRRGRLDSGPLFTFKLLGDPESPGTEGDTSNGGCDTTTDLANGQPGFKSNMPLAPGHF
As to the kind of experiment: [3H]prazosin binding assay in rat liver.

Entries after “also recorded” stand apart in the source; their conditions may differ.

For `COc1ccccc1N1CCN(CCc2ccc3c(c2)OCO3)CC1` [LASSBio 772, 1-(2-1,3-Benzodioxol-5-yl-ethyl)-4-(2-methoxy-phenyl)-piperazine], in assay [1], the “blockade of phenylephrine effects” value is on record as “significantly blocked; also recorded: prevented the phenylephrine hypo-tensor effect”. Besides, the “inhibition of carbacol-induced contractions” value in assay [2] is “not able to significantly inhibit the contractions; also recorded: did not present any activity”. In addition, the “% of Contraction” value in assay [2] (n=3) came to 122.1±8.6%. The molecule also yielded an IC50 on alpha 1B subtype of 450 nM.

For the origin of these results see US20070219213A1, “Use of Adrenergic N-Phenylpiperazine Antagonists, Pahrmaceutical Compositions Containning Them, and Methods of Preparing Them” (priority 2004, published 2007).
